Measurements as given in PubChem BioAssay (NCI).
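In this assay, cells in 96-well plates receive the compound at five concentrations for 48 hours. Endpoints are linearly interpolated between the surrounding concentrations. TGI: total growth inhibition.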

Columns and labels:
Test in all cases: growth of human tumour cells (NCI), 48 h
[1] = test system: 786-0 renal
[2] = test system: A498 renal
[3] = test system: A549 NSCLC
[4] = test system: ACHN renal
[5] = test system: BT-549 breast
[6] = test system: CAKI-1 renal
[7] = test system: CCRF-CEM leukemia
[8] = test system: COLO 205 colon
[9] = test system: DU-145 prostate
[10] = test system: EKVX NSCLC
[11] = test system: HCC-2998 colon
[12] = test system: HCT-116 colon
[13] = test system: HCT-15 colon
[14] = test system: HL-60(TB) leukemia
[15] = test system: HOP-62 NSCLC
[16] = test system: HOP-92 NSCLC
[17] = test system: HS 578T breast
[18] = test system: HT29 colon
[19] = test system: IGROV1 ovarian
[20] = test system: K-562 leukemia
[21] = test system: KM12 colon
[22] = test system: LOX IMVI melanoma
[23] = test system: M14 melanoma
[24] = test system: MALME-3M melanoma
[25] = test system: MCF7 breast
[26] = test system: MDA-MB-231 breast
[27] = test system: MDA-MB-435
[28] = test system: MDA-N
[29] = test system: MOLT-4 leukemia
[30] = test system: NCI-H226 lung
[31] = test system: NCI-H23 lung
[32] = test system: NCI-H460 lung
[33] = test system: NCI-H522 lung
[34] = test system: NCI/ADR-RES ovarian
[35] = test system: OVCAR-3 ovarian
[36] = test system: OVCAR-4 ovarian
[37] = test system: OVCAR-5 ovarian
[38] = test system: OVCAR-8 ovarian
[39] = test system: PC-3 prostate
[40] = test system: RPMI-8226 leukemia
[41] = test system: RXF 393 renal
[42] = test system: SF-268 CNS
[43] = test system: SF-295 CNS
[44] = test system: SF-539 CNS
[45] = test system: SK-MEL-2 melanoma
[46] = test system: SK-MEL-28 melanoma
[47] = test system: SK-MEL-5 melanoma
[48] = test system: SK-OV-3 ovarian
[49] = test system: SN12C renal
[50] = test system: SNB-19 CNS
[51] = test system: SNB-75 CNS
[52] = test system: SR leukemia
[53] = test system: SW-620 colon
[54] = test system: T-47D breast
[55] = test system: TK-10 renal
[56] = test system: U251 CNS
[57] = test system: UACC-257 melanoma
[58] = test system: UACC-62 melanoma
[59] = test system: UO-31 renal

Q: Which results are given for NC(Cc1cnc(I)[nH]1)C(=O)O (stereo not drawn)?
A: TGI [1]: > 100 µM; TGI [2]: > 100 µM; TGI [3]: > 100 µM; TGI [4]: > 100 µM; TGI [5]: > 100 µM; TGI [6]: > 100 µM; TGI [7]: > 100 µM; TGI [8]: > 100 µM; TGI [9]: > 100 µM; TGI [10]: > 100 µM; TGI [11]: > 100 µM; TGI [12]: > 100 µM; TGI [13]: > 100 µM; TGI [14]: 6.41 µM; TGI [15]: > 100 µM; TGI [16]: 82.9 µM; TGI [17]: 63.8 µM; TGI [18]: > 100 µM; TGI [19]: > 100 µM; TGI [20]: > 100 µM; TGI [21]: > 100 µM; TGI [22]: > 100 µM; TGI [23]: > 100 µM; TGI [24]: 75.2 µM; TGI [25]: > 100 µM; TGI [26]: > 100 µM; TGI [27]: > 100 µM; TGI [28]: > 100 µM; TGI [29]: > 100 µM; TGI [30]: > 100 µM; TGI [31]: > 100 µM; TGI [32]: > 100 µM; TGI [33]: 72.9 µM; TGI [34]: > 100 µM; TGI [35]: > 100 µM; TGI [36]: > 100 µM; TGI [37]: > 100 µM; TGI [38]: > 100 µM; TGI [39]: > 100 µM; TGI [40]: > 100 µM; TGI [41]: > 100 µM; TGI [42]: > 100 µM; TGI [43]: > 100 µM; TGI [44]: > 100 µM; TGI [45]: > 100 µM; TGI [46]: > 100 µM; TGI [47]: > 100 µM; TGI [48]: > 100 µM; TGI [49]: > 100 µM; TGI [50]: > 100 µM; TGI [51]: > 100 µM; TGI [52]: > 100 µM; TGI [53]: > 100 µM; TGI [54]: > 100 µM; TGI [55]: > 100 µM; TGI [56]: > 100 µM; TGI [57]: > 100 µM; TGI [58]: > 100 µM; TGI [59]: > 100 µM

Q: O=c1oc2ccccc2c(O)c1/C=N\c1nc(-c2ccc(O)c(O)c2)cs1 was tested. Which TGI [1] did it give?
A: 10.2 µM

Q: What about the TGI [2] of the same molecule?
A: > 46.7 µM

Q: And the TGI [3]?
A: 26.6 µM

Q: And the TGI [4]?
A: 9.77 µM

Q: And the TGI [5]?
A: 25.8 µM

Q: What about the TGI [6] of the same molecule?
A: 16.5 µM

Q: And the TGI [7]?
A: 4.58 µM

Q: And the TGI [8]?
A: 6.76 µM

Q: And the TGI [9]?
A: 17.9 µM

Q: And the TGI [10]?
A: 28.4 µM

Q: What about the TGI [11] of the same molecule?
A: 16.3 µM

Q: And the TGI [12]?
A: 7.61 µM

Q: What about the TGI [13] of the same molecule?
A: 14.9 µM

Q: And the TGI [14]?
A: 8.31 µM

Q: And the TGI [15]?
A: 31.2 µM

Q: What about the TGI [16] of the same molecule?
A: 28.5 µM

Q: What about the TGI [17] of the same molecule?
A: > 80.8 µM

Q: And the TGI [18]?
A: 23.6 µM

Q: What about the TGI [19] of the same molecule?
A: 23.9 µM

Q: What about the TGI [20] of the same molecule?
A: 10.4 µM

Q: And the TGI [21]?
A: 29.6 µM

Q: And the TGI [22]?
A: 14.7 µM

Q: What about the TGI [23] of the same molecule?
A: 10.3 µM

Q: What about the TGI [24] of the same molecule?
A: 9.17 µM

Q: And the TGI [25]?
A: 17.4 µM

Q: What about the TGI [26] of the same molecule?
A: 18.7 µM

Q: What about the TGI [27] of the same molecule?
A: 20.4 µM

Q: And the TGI [28]?
A: 18.8 µM

Q: And the TGI [29]?
A: 3.34 µM

Q: What about the TGI [30] of the same molecule?
A: 42.2 µM

Q: And the TGI [31]?
A: 9.87 µM

Q: What about the TGI [32] of the same molecule?
A: 14.3 µM

Q: What about the TGI [33] of the same molecule?
A: 5.29 µM

Q: What about the TGI [34] of the same molecule?
A: > 72.2 µM

Q: What about the TGI [35] of the same molecule?
A: 5.94 µM

Q: And the TGI [36]?
A: 27.5 µM

Q: What about the TGI [37] of the same molecule?
A: 31.9 µM

Q: And the TGI [38]?
A: > 100 µM

Q: And the TGI [39]?
A: 10.6 µM

Q: What about the TGI [40] of the same molecule?
A: 5.3 µM

Q: What about the TGI [41] of the same molecule?
A: 18.1 µM

Q: What about the TGI [42] of the same molecule?
A: 22.1 µM

Q: And the TGI [43]?
A: > 100 µM

Q: And the TGI [44]?
A: 12.5 µM

Q: And the TGI [45]?
A: 7.04 µM

Q: And the TGI [46]?
A: 24.1 µM

Q: And the TGI [47]?
A: 16.9 µM

Q: What about the TGI [48] of the same molecule?
A: 21.4 µM

Q: What about the TGI [49] of the same molecule?
A: 15.6 µM

Q: What about the TGI [50] of the same molecule?
A: 39.1 µM

Q: And the TGI [51]?
A: 15.4 µM

Q: And the TGI [52]?
A: 4.43 µM

Q: And the TGI [53]?
A: 9.64 µM

Q: What about the TGI [54] of the same molecule?
A: 32 µM

Q: And the TGI [55]?
A: 10.7 µM

Q: What about the TGI [56] of the same molecule?
A: 17.3 µM

Q: And the TGI [57]?
A: 10.3 µM

Q: And the TGI [58]?
A: 16.9 µM

Q: And the TGI [59]?
A: 9.24 µM
